Experimental data published in patent publication US20200207759A1, “NEW PROPANAMINE DERIVATIVES FOR TREATING PAIN AND PAIN RELATED CONDITIONS” (ESTEVE PHARMACEUTICALS, S.A., priority 2017, published 2020).

What was measured:
[1] = target: Human α2δ-1 subunit of Cav2.2 calcium channel (Homo sapiens, UniProt P54289); experiment: Binding assay to human α2δ-1 subunit of Cav2.2 calcium channel, [3H]-Gabapentin; conditions: human α2δ-1 enriched membranes, 15 nM [3H]-Gabapentin; read-out: Ki (nM) alpha2delta Hum
Procedure: Binding Assay to Human α2δ-1 Subunit of Cav2.2 Calcium Channel.
Human α2δ-1 enriched membranes (2.5 μg) were incubated with 15 nM of radiolabeled [3H]-Gabapentin in assay buffer containing Hepes-KOH 10 mM, pH 7.4.
(§1) NSB (non specific binding) was measured by adding 10 μM pregabalin. After 60 min incubation at 27° C., binding reaction was terminated by filtering through Multiscreen GF/C (Millipore) presoaked in 0.5% polyethyleneimine in Vacuum Manifold Station, followed by 3 washes with ice-cold filtration buffer containing 50 mM Tris-HCl, pH 7.4.
Filter plates were dried at 60° C. for 1 hour and 30 μl of scintillation cocktail were added to each well before radioactivity reading.
Readings were performed in a Trilux 1450 Microbeta radioactive counter (Perkin Elmer).

[2] = target: Human norepinephrine transporter (NET) (Homo sapiens, UniProt P23975); experiment: Binding assay to human norepinephrine transporter (NET), [3H]-Nisoxetin; conditions: human NET enriched membranes, 5 nM [3H]-Nisoxetin; read-out: Ki (nM) NET Hum
Procedure: Binding Assay to Human Norepinephrine Transporter (NET).
Human norepinephrine transporter (NET) enriched membranes (5 μg) were incubated with 5 nM of radiolabeled [3H]-Nisoxetin in assay buffer containing 50 mM Tris-HCl, 120 mM NaCl, 5 mM KCl, pH 7.4.
as §1, with “1 μM.” for “10 μM pregabalin.”, “4°” for “27°”, “Tris-HCl, 0.9% NaCl,” for “Tris-HCl,”, “7.4. Filter plates were dried at 60° C. for 1 hour and 30 μl of scintillation cocktail were added to each well before radioactivity reading.” for “7.4.”

Sequence of Human norepinephrine transporter (NET) (P23975 whole entry): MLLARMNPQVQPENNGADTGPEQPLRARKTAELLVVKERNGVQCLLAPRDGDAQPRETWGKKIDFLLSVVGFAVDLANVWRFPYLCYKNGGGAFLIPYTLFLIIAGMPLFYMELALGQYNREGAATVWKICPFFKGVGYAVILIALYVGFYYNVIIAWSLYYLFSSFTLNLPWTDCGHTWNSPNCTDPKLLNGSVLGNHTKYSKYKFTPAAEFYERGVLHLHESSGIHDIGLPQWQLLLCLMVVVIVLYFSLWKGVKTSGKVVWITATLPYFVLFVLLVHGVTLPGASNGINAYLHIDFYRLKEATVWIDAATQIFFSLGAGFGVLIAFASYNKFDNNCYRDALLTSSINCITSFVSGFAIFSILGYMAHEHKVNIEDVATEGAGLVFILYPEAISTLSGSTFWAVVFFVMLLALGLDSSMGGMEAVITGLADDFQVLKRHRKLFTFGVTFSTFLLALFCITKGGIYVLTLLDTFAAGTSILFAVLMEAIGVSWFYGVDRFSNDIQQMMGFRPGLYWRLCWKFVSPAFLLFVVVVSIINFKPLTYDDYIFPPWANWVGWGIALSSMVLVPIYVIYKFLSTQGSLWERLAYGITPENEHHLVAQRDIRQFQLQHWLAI
Sequence of Human α2δ-1 subunit of Cav2.2 calcium channel (P54289 25-1103): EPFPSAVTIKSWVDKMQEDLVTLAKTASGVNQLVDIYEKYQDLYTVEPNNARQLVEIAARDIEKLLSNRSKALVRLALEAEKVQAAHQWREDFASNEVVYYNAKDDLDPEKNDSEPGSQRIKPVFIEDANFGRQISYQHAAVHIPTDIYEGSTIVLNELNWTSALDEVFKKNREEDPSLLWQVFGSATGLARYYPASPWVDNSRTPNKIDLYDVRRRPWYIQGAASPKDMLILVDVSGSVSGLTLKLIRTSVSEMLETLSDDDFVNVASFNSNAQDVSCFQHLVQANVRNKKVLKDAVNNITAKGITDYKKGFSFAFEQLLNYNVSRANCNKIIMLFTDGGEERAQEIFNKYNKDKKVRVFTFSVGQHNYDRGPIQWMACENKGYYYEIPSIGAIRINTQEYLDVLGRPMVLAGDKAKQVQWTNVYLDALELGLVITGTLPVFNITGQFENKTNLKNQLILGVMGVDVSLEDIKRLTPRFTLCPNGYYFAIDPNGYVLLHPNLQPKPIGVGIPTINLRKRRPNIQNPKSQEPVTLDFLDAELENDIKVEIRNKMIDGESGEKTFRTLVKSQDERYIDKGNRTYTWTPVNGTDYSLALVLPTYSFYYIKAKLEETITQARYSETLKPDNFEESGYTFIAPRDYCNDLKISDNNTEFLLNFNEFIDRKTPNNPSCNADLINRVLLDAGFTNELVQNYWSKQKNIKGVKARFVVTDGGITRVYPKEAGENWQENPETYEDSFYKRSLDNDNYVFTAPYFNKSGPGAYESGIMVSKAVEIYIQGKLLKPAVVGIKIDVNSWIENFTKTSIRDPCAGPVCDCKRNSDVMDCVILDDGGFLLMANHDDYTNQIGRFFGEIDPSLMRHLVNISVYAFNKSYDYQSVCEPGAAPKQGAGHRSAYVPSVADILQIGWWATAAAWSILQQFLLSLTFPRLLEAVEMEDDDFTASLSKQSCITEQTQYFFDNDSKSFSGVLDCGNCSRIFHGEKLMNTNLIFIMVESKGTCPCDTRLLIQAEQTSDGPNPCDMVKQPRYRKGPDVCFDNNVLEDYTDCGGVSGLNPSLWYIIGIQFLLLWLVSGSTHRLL

Row | Ki [1] | Ki [2] | Compound
1 | 100 to 500 nM | > 1000 nM | CNCCC(c1cccs1)N1CC(C)(C)c2ccc(C#N)cc21 (stereo not drawn) [Example 92, 3,3-Dimethyl-1-(3-(methylamino)-1-(thiophen-2-yl)propyl)indoline-6-carbonitrile]
2 | ≥ 3000 nM | > 1000 nM | CNCC[C@H](c1nccs1)N1CCc2ncccc21 [Example 54, (R)-3-(2,3-Dihydro-1H-pyrrolo[3,2-b]pyridin-1-yl)-N-methyl-3-(thiazol-2-yl)propan-1-amine]
3 | 100 to 500 nM | 500 to 1000 nM | CNCC[C@@H](c1ccc(Cl)s1)N1CCc2ncccc21 [Example 40, (S)-3-(5-Chlorothiophen-2-yl)-3-(2,3-dihydro-1H-pyrrolo[3,2-b]pyridin-1-yl)-N-methylpropan-1-amine]
4 | 100 to 500 nM | 100 to 500 nM | CNCC[C@@H](c1ccsc1)N1CC(C)(C)c2nc(C(F)(F)F)ccc21 [Example 107, (S)-3-(3,3-Dimethyl-5-(trifluoromethyl)-2,3-dihydro-1H-pyrrolo[3,2-b]pyridin-1-yl)-N-methyl-3-(thiophen-3-yl)propan-1-amine]
5 | 100 to 500 nM | 100 to 500 nM | CCc1cnc2c(c1)N([C@H](CCNC)c1cccs1)CC2 [Example 32, (R)-3-(6-Ethyl-2,3-dihydro-1H-pyrrolo[3,2-b]pyridin-1-yl)-N-methyl-3-(thiophen-2-yl)propan-1-amine]
6 | 500 to 3000 nM | > 1000 nM | CNCC[C@@H](c1ccsc1)N1CCc2ncc(C)cc21 [Example 102, (S)—N-methyl-3-(6-methyl-2,3-dihydro-1H-pyrrolo[3,2-b]pyridin-1-yl)-3-(thiophen-3-yl)propan-1-amine]
7 | 500 to 3000 nM | > 1000 nM | CNCC[C@@H](c1ccsc1)N1CCc2ncc(C3CC3)cc21 [Example 53, (S)-3-(6-Cyclopropyl-2,3-dihydro-1H-pyrrolo[3,2-b]pyridin-1-yl)-N-methyl-3-(thiophen-3-yl)propan-1-amine]
8 | 500 to 3000 nM | 500 to 1000 nM | CNCC[C@@H](c1cccc(F)c1)N1CCc2ncccc21 [Example 82, (S)-3-(2,3-Dihydro-1H-pyrrolo[3,2-b]pyridin-1-yl)-3-(3-fluorophenyl)-N-methylpropan-1-amine]
9 | ≥ 3000 nM | > 1000 nM | CNCC[C@@H](c1cccs1)N1CC(C)(C)c2ncc(Cl)cc21 [Example 109, (S)-3-(6-Chloro-3,3-dimethyl-2,3-dihydro-1H-pyrrolo[3,2-b]pyridin-1-yl)-N-methyl-3-(thiophen-2-yl)propan-1-amine]
10 | ≥ 3000 nM | < 100 nM | CNCCC(c1cccs1)N1CCc2c(OC)cccc21 (stereo not drawn) [Example 69, 3-(4-Methoxyindolin-1-yl)-N-methyl-3-(thiophen-2-yl)propan-1-amine]
11 | 500 to 3000 nM | < 100 nM | CNCC[C@@H](c1cccs1)N1CCc2c(C#N)cccc21 [Example 111, (S)-1-(3-(Methylamino)-1-(thiophen-2-yl)propyl)indoline-4-carbonitrile]
12 | ≥ 3000 nM | > 1000 nM | CNCC[C@H](c1cccs1)N1c2ccccc2C[C@@H]1C [Example 118, (R)—N-methyl-3-((S)-2-methylindolin-1-yl)-3-(thiophen-2-yl)propan-1-amine]
13 | ≥ 3000 nM | 100 to 500 nM | CNCC[C@@H](c1cccc(F)c1)N1CC(C)(C)c2ncccc21 [Example 84, (S)-3-(3,3-Dimethyl-2,3-dihydro-1H-pyrrolo[3,2-b]pyridin-1-yl)-3-(3-fluorophenyl)-N-methylpropan-1-amine]
14 | 500 to 3000 nM | 500 to 1000 nM | CNCCC(c1ccsc1)N1CC(C)(C)c2ncccc21 (stereo not drawn) [Example 13, 3-(3,3-Dimethyl-2,3-dihydro-1H-pyrrolo[3,2-b]pyridin-1-yl)-N-methyl-3-(thiophen-3-yl)propan-1-amine]
15 | < 100 nM | > 1000 nM | CNCC[C@H](c1ccsc1)N1CC(C)(C)c2nc(C)c(F)cc21 [Example 90, (R)-3-(6-Fluoro-3,3,5-trimethyl-2,3-dihydro-1H-pyrrolo[3,2-b]pyridin-1-yl)-N-methyl-3-(thiophen-3-yl)propan-1-amine]
16 | 500 to 3000 nM | 500 to 1000 nM | CNCCC(c1cccs1)N1CCc2ncccc21 (stereo not drawn) [Example 3, 3-(2,3-Dihydro-1H-pyrrolo[3,2-b]pyridin-1-yl)-N-methyl-3-(thiophen-2-yl)propan-1-amine]
17 | 100 to 500 nM | 100 to 500 nM | CCc1cnc2c(c1)N([C@H](CCNC)c1ccsc1)CC2 [Example 76, (R)-3-(6-Ethyl-2,3-dihydro-1H-pyrrolo[3,2-b]pyridin-1-yl)-N-methyl-3-(thiophen-3-yl)propan-1-amine]

Row | Ki [1] | Ki [2] | Compound
18 | < 100 nM | 500 to 1000 nM | CNCC[C@H](c1ccsc1)N1CCc2ncc(C3CC3)cc21 [Example 52, (R)-3-(6-Cyclopropyl-2,3-dihydro-1H-pyrrolo[3,2-b]pyridin-1-yl)-N-methyl-3-(thiophen-3-yl)propan-1-amine]
19 | 100 to 500 nM | 500 to 1000 nM | CNCC[C@@H](c1ccsc1)N1CC(C)(C)c2ncc(F)cc21 [Example 88, (S)-3-(6-Fluoro-3,3-dimethyl-2,3-dihydro-1H-pyrrolo[3,2-b]pyridin-1-yl)-N-methyl-3-(thiophen-3-yl)propan-1-amine]
20 | 500 to 3000 nM | < 100 nM | CNCCC(c1cccs1)N1CCc2c(F)cccc21 (stereo not drawn) [Example 67, 3-(4-Fluoroindolin-1-yl)-N-methyl-3-(thiophen-2-yl)propan-1-amine]
21 | 100 to 500 nM | > 1000 nM | CNCC[C@H](c1ccsc1)N1CC(C)(C)c2nc(C)ccc21 [Example 58, (R)-N-methyl-3-(thiophen-3-yl)-3-(3,3,5-trimethyl-2,3-dihydro-1H-pyrrolo[3,2-b]pyridin-1-yl)propan-1-amine]
22 | < 100 nM | > 1000 nM | CNCC[C@H](c1cccs1)N1CC(C)(C)c2ncc(F)cc21 [Example 106, (R)-3-(6-fluoro-3,3-dimethyl-2,3-dihydro-1H-pyrrolo[3,2-b]pyridin-1-yl)-N-methyl-3-(thiophen-2-yl)propan-1-amine]
23 | 100 to 500 nM | < 100 nM | CNCC[C@@H](c1cccs1)N1CC(C)(C)c2nc(C)ccc21 [Example 35, (S)-N-methyl-3-(thiophen-2-yl)-3-(3,3,5-trimethyl-2,3-dihydro-1H-pyrrolo[3,2-b]pyridin-1-yl)propan-1-amine]
24 | 100 to 500 nM | 100 to 500 nM | CNCCC(c1cccs1)N1CC(C)(C)c2nc(OC)ccc21 (stereo not drawn) [Example 99, 3-(5-Methoxy-3,3-dimethyl-2,3-dihydro-1H-pyrrolo[3,2-b]pyridin-1-yl)-N-methyl-3-(thiophen-2-yl)propan-1-amine]
25 | 100 to 500 nM | 500 to 1000 nM | CNCC[C@@H](c1ccc(F)s1)N1CCc2ncccc21 [Example 19, (S)-3-(2,3-dihydro-1H-pyrrolo[3,2-b]pyridin-1-yl)-3-(5-fluorothiophen-2-yl)-N-methylpropan-1-amine]
26 | 500 to 3000 nM | > 1000 nM | CNCC[C@H](c1ccsc1)N1CCc2nc(C)ccc21 [Example 62, (R)—N-methyl-3-(5-methyl-2,3-dihydro-1H-pyrrolo[3,2-b]pyridin-1-yl)-3-(thiophen-3-yl)propan-1-amine]
27 | 100 to 500 nM | < 100 nM | CNCCC(c1cccs1)N1CCc2c(C#N)cccc21 (stereo not drawn) [Example 95, 1-(3-(Methylamino)-1-(thiophen-2-yl)propyl)indoline-4-carbonitrile]
28 | ≥ 3000 nM | > 1000 nM | CNCC[C@H](c1cccc(F)c1)N1CC(C)(C)c2ncccc21 [Example 85, (R)-3-(3,3-Dimethyl-2,3-dihydro-1H-pyrrolo[3,2-b]pyridin-1-yl)-3-(3-fluorophenyl)-N-methylpropan-1-amine]
29 | ≥ 3000 nM | 100 to 500 nM | CNCCC(c1cccs1)N1CCCc2ccccc21 (stereo not drawn) [Example 4, 3-(3,4-Dihydroquinolin-1(2H)-yl)-N-methyl-3-(thiophen-2-yl)propan-1-amine]
30 | 100 to 500 nM | > 1000 nM | CNCCC(c1cccs1)N1CC(C)(C)c2ncc(F)cc21 (stereo not drawn) [Example 66, 3-(6-Fluoro-3,3-dimethyl-2,3-dihydro-1H-pyrrolo[3,2-b]pyridin-1-yl)-N-methyl-3-(thiophen-2-yl)propan-1-amine]
31 | < 100 nM |  | CNCC[C@@H](c1cccs1)N1CC(C)(C)c2ncc(C#N)cc21 [Example 115, (S)-3,3-Dimethyl-1-(3-(methylamino)-1-(thiophen-2-yl)propyl)-2,3-dihydro-1H-pyrrolo[3,2-b]pyridine-6-carbonitrile]
32 | < 100 nM |  | CCNCCC(c1cccs1)N1CC(C)(C)c2ncc(C#N)cc21 (stereo not drawn) [Example 101, 1-(3-(Ethylamino)-1-(thiophen-2-yl)propyl)-3,3-dimethyl-2,3-dihydro-1H-pyrrolo[3,2-b]pyridine-6-carbonitrile]
33 | 500 to 3000 nM |  | CNCC[C@H](c1cccs1)N1CC(C)(C)c2ncc(C#N)cc21 [Example 116, (R)-3,3-dimethyl-1-(3-(methylamino)-1-(thiophen-2-yl)propyl)-2,3-dihydro-1H-pyrrolo[3,2-b]pyridine-6-carbonitrile]
